Laboratory results as given in patent US20180371076A1, “MATERNAL TH17 CELLS AND PSYCHIATRIC DISORDERS” (New York University, priority 2017, published 2018).

B1: recombinant IL-17a protein: Recombinant mouse IL-17a cytokine (R&D), injected into the fetal brain ventricle (protein, UniProt Q62386 26-158, looked up)
Interleukin-17A: AAIIPQSSACPNTEAKDFLQNVKVNLKVFNSLGAKVSSRRPSDYLNRSTSPWTLHRNEDPDRYPSVIWEAQCRHQRCVNAEGKLDHHMNSVLIQQEILVLKREPESCPFTFRVEKMLVGVGCTCVASIVRQAA

Columns and labels:
IL-1β = IL-1β ELISA of maternal serum; format: in vivo, mouse; settings: poly(I:C) at E12.5, 3 h, vs PBS
Procedure: Cell preparation, Flow cytometry, ELISA Embryos at each implantation site were dissected in ice-cold HBSS containing Ca2+ and Mg2+ (Gibco). Myometrium was first peeled off of the decidua and embryos were discarded. Dissected decidual and placental tissues were then minced and enzymatically dissociated in HBSS containing 0.28 Wunsch units (WU)/mL Liberase (Roche) and 30 μg/mL DNase I (Roche) for 30 min at 37° C. with intermittent mixing. Digested tissues were washed in PBS containing 5 mM EDTA and 5% fetal bovine serum and then incubated again in the same buffer for 15 min at 37° C. prior to filtration through a cell strainer. […] Intracellular cytokine staining was performed according to the manufacturer's protocol (Cytofix/Cytoperm buffer set from BD with Pacific Blue-conjugated CD4, FITC or PerCP-Cy5.5-conjugated CD8, APC4 Cy7-conjugated TCR-β, PE-Cy7-conjugated anti-IL-17a, PE-conjugated anti-IFN-γ, PECy7-conjugated anti-CD25 and PE-conjugated Foxp3 (eBioscience). LSR II (BD Biosciences) and FlowJo software (Tree Star) were used for flow cytometry and analysis. Dead cells were excluded using the Live/Dead fixable aqua dead cell stain kit (Invitrogen). For ELISA with sera and placenta/decidua extract, IL-6 (Ebioscience), IL-17a, TNF-α, IL-1β, IFN-β (Biolgened), and IL-10 (BD) were measured according to the manufacturer's protocol.

IL-17a mRNA = test: Real-time PCR of IL-17a mRNA (placenta/decidua mononuclear cells, fetal brain); format: cell-based, mouse
[1] = Properties of the litter (gender ratio, litter size, offspring weight); format: in vivo, mouse; settings: PBS vs poly(I:C), control vs anti-IL-17a treated dams
[2] = tested on: offspring of pregnant mice (MIA mouse model); test: Three-chamber social approach test in adult offspring; format: in vivo
Procedure: Maternal Immune Activation. Mice were mated overnight and females were checked daily for the presence of seminal plugs, noted as embryonic day 0.5 (E0.5). On E12.5, pregnant female mice were weighed and injected with a single dose (20 mg/kg; i.p.) of poly(I:C) (Sigma Aldrich) or PBS vehicle. Each dam was returned to its cage and left undisturbed until the birth of its litter. All pups remained with the mother until weaning on postnatal day 21 (P21), at which time mice were group housed at maximum 5 per cage with same-sex littermates. For the IL-17 cytokine blockade experiment, monoclonal IL-17a blocking antibody (clone 50104; R&D) or isotype control antibody (IgG2a, clone 54447; R&D) was administered 6 h before maternal immune activation (FIG. 2) via i.p. route (500 μg/animal) or 2 days after maternal immune activation (FIG. 5) via i.p. route (500 μg/animal).
Three-chamber social approach. Twelve-week-old male mice were tested for social behavior using a three-chamber social approach paradigm. Experimental mice were habituated for 1 h in separate clean holding cages and then introduced into a three-chamber arena with only empty object-containment cages (circular metallic cages, Stoelting Neuroscience) for a 10-min acclimation phase in two 5-min sessions in a 3-4 h period. The following day the mice were placed in the center chamber (without access to the left and right social test areas) and allowed to explore the center area for 5 min. […] Experimental mice were given 10 min to explore both chambers and measured for approach behavior as interaction time (i.e. sniffing, approach) with targets in each chamber (within 2 cm, excluding non-nose contact or exploration). Sessions were video-recorded and object exploration time and total distance moved were analyzed using the Noldus tracking system. A social preference index was calculated as the percentage of time spent investigating the social target out of the total exploration time of both objects. […]

Molecule	serum IL-1β (IL-1β)	IL-17a mRNA in placenta- and decidua-associated mononuclear cells (IL-17a mRNA; isolated at E14.5, cultured 24 h)	IL-17a mRNA in fetal brain at E14.5 (IL-17a mRNA; regardless of poly(I:C) injection)	gender ratios, litter sizes and weights [1]	social interaction in adult offspring ([2]; prenatal exposure to MIA (poly(I:C) at E12.5))	mobility (total distance in social approach test) ([2]; intra-ventricular injection at E14.5)	social approach behavior ([2]; intra-ventricular injection at E14.5, compared with sham injection)
poly(I:C)	strong induction	strongly up-regulated	not detected	not affected	social interaction deficits		
B1						not due to group differences in mobility	social approach deficit
